Results on 23 compounds are retold here after patent US20110028715A1, “NOVEL ADENINE COMPOUND” (priority 2007, published 2011).

Where two headings read alike, the source gives them in different places. Marks after values point to notes of the source that are not given here.

Test [1] concerns the target T1, human TLR7 (Homo sapiens, UniProt Q9NYK1).
T1 construct: expressed in transfected cells; host or cells: HEK 293 (hTLR7/seap-293)
T1 sequence (Q9NYK1 27-1049): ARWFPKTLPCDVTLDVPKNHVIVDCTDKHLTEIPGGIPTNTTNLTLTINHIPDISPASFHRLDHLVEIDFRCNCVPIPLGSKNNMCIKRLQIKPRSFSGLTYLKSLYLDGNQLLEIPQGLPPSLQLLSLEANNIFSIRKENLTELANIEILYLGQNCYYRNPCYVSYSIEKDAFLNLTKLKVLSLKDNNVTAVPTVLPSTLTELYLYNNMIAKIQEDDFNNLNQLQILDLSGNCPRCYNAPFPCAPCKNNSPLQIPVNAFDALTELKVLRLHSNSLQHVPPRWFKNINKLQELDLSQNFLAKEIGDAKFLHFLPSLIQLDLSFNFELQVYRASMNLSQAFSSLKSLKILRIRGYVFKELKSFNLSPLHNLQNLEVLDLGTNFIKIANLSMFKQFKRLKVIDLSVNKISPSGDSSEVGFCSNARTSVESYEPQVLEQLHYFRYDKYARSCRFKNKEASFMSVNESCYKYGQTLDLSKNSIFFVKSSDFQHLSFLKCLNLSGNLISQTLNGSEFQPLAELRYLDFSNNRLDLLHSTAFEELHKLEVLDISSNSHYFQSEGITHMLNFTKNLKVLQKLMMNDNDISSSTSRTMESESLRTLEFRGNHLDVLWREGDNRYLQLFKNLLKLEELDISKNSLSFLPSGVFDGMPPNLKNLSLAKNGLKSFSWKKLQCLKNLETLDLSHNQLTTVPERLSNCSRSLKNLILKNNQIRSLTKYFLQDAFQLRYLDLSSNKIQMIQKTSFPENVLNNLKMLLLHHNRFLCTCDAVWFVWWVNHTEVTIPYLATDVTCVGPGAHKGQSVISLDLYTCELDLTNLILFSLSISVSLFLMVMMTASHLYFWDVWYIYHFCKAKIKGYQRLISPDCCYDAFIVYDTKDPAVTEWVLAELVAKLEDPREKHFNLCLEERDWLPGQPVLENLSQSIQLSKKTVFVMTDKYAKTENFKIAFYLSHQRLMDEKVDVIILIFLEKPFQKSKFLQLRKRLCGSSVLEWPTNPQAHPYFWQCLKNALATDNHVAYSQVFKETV
The experiment in a line: Human TLR7 reporter assay (NF-kB-SEAP, HEK 293 cells). It counts as cell-based. Conditions: read-out: human TLR7 binding activity EC50. The procedure:
HEK 293 cells, to which human TLR7 or rat TLR7 plasmid and reporter plasmid (NF-kB-SEAP) were stably introduced, were suspended in DMEM medium (10% FBS, 1% NEAA, 10 ug/mL blastocidin S HCl, 100 ug/mL Zeocin), and seeded into a 96-well plate in an amount of 90 μl/well (hTLR7/seap-293: 20,000 cells/well, rTLR7/seap-293: 25,000 cells/well).
A test compound (DMSO stock solution (2 μl) was diluted into 100-fold with the medium (200 μl)) was added into the cells seeded in the 96-well plate in an amount of 10 μl/well (final concentration: 1 nM to 10 μM, common ratio: 3). The side of the plate was lightly patted for stiffing the content of the plate, and the plate was incubated for 20 hours in a CO2 incubator. To the cells that were stimulated with a test compound was added a substrate for reporter assay (substrate for SEAP, pNPP) in an amount of 50 μl/well. The minute later after the addition of the substrate, the solution for reaction quenching (4N NaOH) was added to the plate in an amount of ? 50 μl/well in order to quench the enzyme reaction. A top seal A was applied to the plate, and the absorbance at 405 nm was measured by a microplate reader.
In a similar manner to Example 85, the following compounds were tested.

For test [2], the system named is IFN-α. The experiment in a line: IFN-α production inducing activity in mice (plasma IFN-α by L929/2-5AS-Luc bioassay). The test is classed as in vivo, B6C3F1 mice. Conditions: 3 hours after 1 mg/kg intravenously via tail vein, mean ± standard deviation (n = 3). The procedure:
A test compound was administered to B6C3F1 mice (Charles River Japan, Inc.) via tail vein at the dose of 1 mg/kg intravenously. After 3 hours, total blood was collected into a sample tube containing heparin. Plasma was prepared from total blood after centrifugation (3,000 rpm, 10 min, at room temperature) and stored at −20° C.
Murine fibroblasts (L929/2-5AS-Luc), which constitutively expressed luciferase gene in which the promoter region for 2′-5′-oligoadenylate synthase was cloned, was seeded into 96-well plate at 4×10^4 cells/well, and cultured for overnight with diluted plasma or mouse IFN-α. After Luclite (Perkin Elmer) was added to the plate, the luciferase activity was measured with TopCount (Perkin Elmer).
The concentration of IFN-α in plasma was calculated by linear regression of logarithmic transformed concentration of mouse IFN-α and the luciferase activity.

Setting [3] is: Table 1, HEK 293 hTLR7/NF-kB-SEAP reporter, 20 hours incubation.
The mark [4] stands for this setting: Table 6, tested in a similar manner to Example 85.

In general, EC50 refers to the midpoint of the concentration-response curve. For the compound `CCCCOc1nc(N)c2nc(O)n(Cc3ccc(CN4CCOCC4)cc3)c2n1` [Example 1, 6-Amino-2-butoxy-9-(4-morpholin-4-ylmethylbenzyl)-7,9-dihydropurin-8-one], in test [1] (setting [3]), the EC50 turned out to be 7.2 nM.

Regarding `CCCCOc1nc(N)c2[nH]c(=O)n(Cc3ccc(CN4CCCCC4)cc3)c2n1` [Example 2, 6-Amino-2-butoxy-9-(4-piperidin-1-ylmethylbenzyl)-7,9-dihydropurin-8-one], the EC50 in test [1] (setting [3]) amounted to 0.9 nM.

In the case of `CCCCOc1nc(N)c2[nH]c(=O)n(Cc3ccc(CN4CCN(C)CC4)cc3)c2n1` [Example 3, 6-Amino-2-butoxy-9-[4-(4-methylpiperazin-1-ylmethyl)benzyl]-7,9-dihydropurin-8-one], the EC50 in test [1] (setting [3]) turned out to be 1.8 nM.

In the case of `CCCCOc1nc(N)c2[nH]c(=O)n(Cc3ccc(CN4CCC(N(C)C)CC4)cc3)c2n1` [Example 4, 6-Amino-2-butoxy-9-[4-(4-dimethylaminopiperidin-1-ylmethyl)benzyl]-7,9-dihydropurin-8-one], the EC50 in test [1] (setting [3]) was determined as 2.5 nM.

For `CCCCOc1nc(N)c2[nH]c(=O)n(Cc3ccc(CN4CCC(N(C)C)C4)cc3)c2n1` (centres unmarked) [Example 5, 6-Amino-2-butoxy-9-[4-(3-dimethylaminopyrrolidin-1-ylmethyl)benzyl]-7,9-dihydropurin-8-one], in test [1] (setting [3]), the concentration giving a half-maximal response (EC50) came out at 2.7 nM.

On to `COCCOc1nc(N)c2[nH]c(=O)n(Cc3ccc(CN4CCCCC4)cc3)c2n1` [Example 10, 6-Amino-2-(2-methoxyethoxy)-9-(4-piperidin-1-ylmethylbenzyl)-7,9-dihydropurin-8-one], for which the “Mouse IFN-α” value in test [2] is 7.3 ± 1.6 IU/mL.

`COCCOc1nc(N)c2[nH]c(=O)n(Cc3ccc(CN4CCC(Oc5ccccc5)CC4)cc3)c2n1` [Example 13, 6-Amino-2-(2-methoxyethoxy)-9-[4-(4-phenoxypiperidin-1-ylmethyl)benzyl]-7,9-dihydropurin-8-one]: in test [1] (setting [3]), the concentration giving a half-maximal response (EC50) amounted to 18.7 nM.

With `Nc1nc(OCCCC(F)(F)F)nc2c1[nH]c(=O)n2Cc1ccc(CN2CCOCC2)cc1` [Example 23, 6-Amino-9-(4-morpholin-4-ylmethylbenzyl)-2-(4,4,4-trifluorobutoxy)-7,9-dihydropurin-8-one], the EC50 in test [1] (setting [3]) came to 14.8 nM.

In the case of `CCCCNc1nc(N)c2[nH]c(=O)n(Cc3ccc(CN4CCCCC4)cc3)c2n1` [Example 29, 6-Amino-2-butylamino-9-(4-piperidin-1-ylmethylbenzyl)-7,9-dihydropurin-8-one], in test [1] (setting [3]), the concentration giving a half-maximal response (EC50) is 7.6 nM.

For `CCCCOc1nc(N)c2[nH]c(=O)n(Cc3ccc(OCCCN(C)C)cc3)c2n1` [Example 37, 6-Amino-2-butoxy-9-[4-(3-dimethylaminopropoxy)benzyl]-7,9-dihydropurin-8-one], in test [1] (setting [3]), the EC50 came to 1.1 nM.

Turning to `COCCOc1nc(N)c2[nH]c(=O)n(Cc3ccc(N4CCN(C)CC4)nc3)c2n1` [Example 42, 6-Amino-2-(2-methoxyethoxy)-9-[6-(4-methylpiperazin-1-yl)pyridin-3-ylmethyl]-7,9-dihydropurin-8-one], the “Mouse IFN-α” value in test [2] was determined as 30.0 ± 7.3 IU/mL.

For `CCCCNc1nc(N)c2[nH]c(=O)n(Cc3ccc(OCCN(C)C)nc3)c2n1` [Example 54, 6-Amino-2-butylamino-9-[6-(2-dimethylaminoethoxy)pyridin-3-ylmethyl]-7,9-dihydropurin-8-one], the “Mouse IFN-α” value in test [2] is 53.6 ± 6.5^a) IU/mL.

Regarding `CCCCNc1nc(N)c2[nH]c(=O)n(Cc3cnc(N4CCN(C)CC4)c(Cl)c3)c2n1` [Example 56, 6-Amino-2-butylamino-9-[5-chloro-6-(4-methylpiperazin-1-yl)pyridin-3-ylmethyl]-7,9-dihydropurin-8-one], the EC50 in test [1] (setting [3]) was 1.3 nM.

For `CCCCNc1nc(N)c2[nH]c(=O)n(Cc3cnc(OCCN(C)C)c(Cl)c3)c2n1` [Example 58, 6-Amino-2-butylamino-9-[5-chloro-6-(2-dimethylaminoethoxy)pyridin-3-ylmethyl]-7,9-dihydropurin-8-one], in test [1] (setting [3]), the EC50 stood at 3.7 nM.

In the case of `CCOc1nc(N)c2[nH]c(=O)n(Cc3ccc(CN4CCOCC4)cc3)c2n1` [Example 68, 6-Amino-2-ethoxy-9-(4-morpholin-4-ylmethylbenzyl)-7,9-dihydropurin-8-one], the concentration for a half-maximal effect (EC50) in test [1] (setting [3]) came to 5.5 nM.

For `CCCCOc1nc(N)c2[nH]c(=O)n(Cc3ccc(CN4CCN(C(=O)CN(C)C)CC4)cc3)c2n1` [Example 94, 6-Amino-2-butoxy-9-{4-[4-(2-dimethylaminoacetyl)piperazin-1-ylmethyl]benzyl}-7,9-dihydropurin-8-one], the EC50 in test [1] (setting [4]) was 2.5 nM.

With `CCCCOc1nc(N)c2[nH]c(=O)n(Cc3ccc(N(C)CCN(C)C)nc3)c2n1` [Example 104, 6-Amino-2-butoxy-9-{6-[(2-dimethylaminoethyl)methylamino]pyridin-3-ylmethyl}-7,9-dihydropurin-8-one], the EC50 in test [1] (setting [4]) came to 5.3 nM.

Regarding `COCCOc1nc(N)c2[nH]c(=O)n(Cc3cnc(N4CCN(C)CC4)c(Cl)c3)c2n1` [Example 105, 6-Amino-9-[5-chloro-6-(4-methylpiperazin-1-yl)pyridin-3-ylmethyl]-2-(2-methoxyethoxy)-7,9-dihydropurin-8-one], the EC50 in test [1] (setting [4]) turned out to be 3.3 nM.

For `COCCOc1nc(N)c2[nH]c(=O)n(Cc3ccc(OCC(C)(C)CN(C)C)nc3)c2n1` [Example 110, 6-Amino-9-[6-(3-dimethylamino-2,2-dimethylpropoxy)pyridin-3-ylmethyl]-2-(2-methoxyethoxy)-7,9-dihydropurin-8-one], in test [1] (setting [4]), the EC50 is 16.5 nM.

As for `CCCCNc1nc(N)c2[nH]c(=O)n(Cc3ccc(OCCCN(C)C)nc3)c2n1` [Example 116, 6-Amino-2-butylamino-9-[6-(3-dimethylaminopropoxy)pyridin-3-ylmethyl]-7,9-dihydropurin-8-one], the EC50 in test [1] (setting [4]) was 19.6 nM.

For `COCCOc1nc(N)c2[nH]c(=O)n(Cc3cnc(OCCN(C)C)c(Cl)c3)c2n1` [Example 118, 6-Amino-9-[5-chloro-6-(2-dimethylaminoethoxy)pyridin-3-ylmethyl]-2-(2-methoxyethoxy)-7,9-dihydropurin-8-one], in test [1] (setting [4]), the EC50 came to 14 nM.

Consider `COCCOc1nc(N)c2[nH]c(=O)n(Cc3cnc(OCC(C)(C)CN(C)C)c(Cl)c3)c2n1` [Example 120, 6-Amino-9-[5-chloro-6-(3-dimethylamino-2,2-dimethylpropoxy)pyridin-3-ylmethyl]-2-(2-methoxyethoxy)-7,9-dihydropurin-8-one], for which the half-maximal effective concentration (EC50) in test [1] (setting [4]) amounted to 3.7 nM.

Regarding `COCCOc1nc(N)c2[nH]c(=O)n(Cc3cnc(OC4CCN(C)CC4)c(Cl)c3)c2n1` [Example 123, 6-Amino-9-[5-chloro-6-(1-methylpiperidin-4-yloxy)pyridin-3-ylmethyl]-2-(2-methoxyethoxy)-7,9-dihydropurin-8-one], in test [1] (setting [4]), the EC50 came to 6.9 nM.
